In patent publication US10071965B2, “Pyridone FabI inhibitors and uses thereof” (priority 2015, dated 2018):
Converted amounts (≈) assume the structure as drawn. Like-named read-outs stand apart in the source and are kept apart here. Marks after values point to notes of the source that are not given here.

Tests used:
saFabI [1] = molecular target: T1, saFabI (Staphylococcus aureus (strain MRSA252), UniProt Q6GI75); assay: saFabI inhibition kinetics; assay type: biochemical
[2] = molecular target: M. tuberculosis enoyl-ACP reductase InhA (Mycobacterium tuberculosis (strain ATCC 25618 / H37Rv), UniProt P9WGR1); assay: InhA inhibition kinetics; assay type: biochemical
S. aureus RN4220 = assay: MIC microbroth dilution, S. aureus RN4220; assay type: cell-based, Staphylococcus aureus; conditions: Staphylococcus aureus
E. coli MG1655 ΔacrAB = assay: microbe, parasite or virus in culture; assay type: cell-based, Escherichia coli; conditions: for MIC: Escherichia coli
E. coli MG1655 = assay: MIC microbroth dilution, E. coli MG1655 with intact AcrAB efflux pump; assay type: cell-based, Escherichia coli; conditions: for MIC: Escherichia coli
F. tularensis LVS [3] = assay: microbe, parasite or virus in culture; assay type: cell-based; conditions: Francisella tularensis; for MIC: read-out: MIC (μm), F. tularensis LVS, Table 3; for inhibition at 5 µg/mL: read-out: Francisella tularensis LVS, % inhib.
P. mirabilis ATCC35659 = assay: MIC microbroth dilution, P. mirabilis ATCC35659; assay type: cell-based; conditions: Proteus mirabilis
M. tuberculosis H37Rv = assay: MIC microbroth dilution, M. tuberculosis H37Rv; assay type: cell-based; conditions: Mycobacterium tuberculosis
B. pseudomallei Bp400 [4] = assay: microbe, parasite or virus in culture; assay type: cell-based; conditions: Burkholderia pseudomallei
saFabI [5] = molecular target: T1, saFabI; assay: Jump dilution assay with saFabI; assay type: biochemical; conditions: preincubation with NADPH and saFabI
F. tularensis LVS [6] = conditions: data according to Ref. 69; cited from earlier work
B. pseudomallei Bp400 [7] = conditions: B. pseudomallei Bp400, data according to Ref. 69; cited from earlier work
Bt38 = assay: microbe, parasite or virus in culture; assay type: cell-based; conditions: Burkholderia pseudomallei, read-out: Bt38, % inhib.
[8] = molecular target: Francisella tularensis FabI (Francisella tularensis subsp. tularensis (strain SCHU S4 / Schu 4), UniProt Q5NGQ3); assay: biochemical
bpFabI = bpFabI (Burkholderia pseudomallei, UniProt A0A0H3HP34); assay: biochemical
bpFabV = bpFabV (Burkholderia pseudomallei, UniProt Q63TE9); assay type: biochemical; conditions: read-out: Burkholderia pseudomallei IC50 (μM), bpFabV
YpFabV = YpFabV (Yersinia pestis, UniProt Q8Z9U1); assay: biochemical
Yersinia pestis = assay: microbe, parasite or virus in culture; assay type: cell-based; conditions: read-out: Yersinia pestis, % inhib.
ecFabI = ecFabI (Escherichia coli (strain K12), UniProt P0AEK4); assay: ecFabI inhibition kinetics; assay type: biochemical; conditions: Ki^app (nM), [S]/KS = 0.19
[9] = tested on: PT166-resistant S. aureus RN4220 mutants; assay: microbe, parasite or virus in culture; assay type: cell-based; conditions: Staphylococcus aureus
MRSA strain BAA1762 = assay: Neutropenic mouse thigh infection model; assay type: in vivo, Swiss Webster mice; conditions: 100 mg/kg dose, MRSA BAA1762, neutropenic mouse
in vivo = conditions: female, ICR, mouse, ip, 100 mg/kg
[10] = RN4220, S. aureus RN4220, Table 3, read-out: MIC (μm)
[11] = RN4220, S. aureus RN4220, read-out: MIC
[12] = E. coli MG1655, Table 3, read-out: MIC (μm)
[13] = M. tuberculosis H37Rv, Table 3, read-out: MIC (μm)
[14] = H37RV, 4-pyridones table, read-out: Mycobacterium tuberculosis MIC (μg/mL) H37Rv

With Cc1c(N)cccc1Cn1ccc(OCCc2cccs2)cc1=O [CG400549, reference compound] the “affinity improvement for saFabI” value (saFabI [1]; relative to PT173) was 1.5 fold, the Ki [2] was 0.582 µM and the MIC (S. aureus RN4220; [10]) was 5.9 µM. For the same compound, the MIC (S. aureus RN4220; [11]) was 5.9 µM, the MIC (E. coli MG1655 ΔacrAB; MG1655) was greater than 375 µM and the MIC (E. coli MG1655 ΔacrAB; MG1655, read-out: MIC (μm)) was greater than 375 µM. The lower antibacterial activity (E. coli MG1655; E. coli versus S. aureus, Table 3) was greater than 64 fold, the MIC (E. coli MG1655; [12]) was greater than 375 µM and the MIC (F. tularensis LVS [3]) was 5.9 µM (≈ 2.01 µg/mL). It also gave an MIC (P. mirabilis ATCC35659; P. mirabilis ATCC35659, read-out: MIC (μm)) greater than 750 µM, an MIC (M. tuberculosis H37Rv; [13]) greater than 300 µM and an MIC (B. pseudomallei Bp400 [4]; BP400, read-out: MIC (μm)) of 376 µM. For the same compound, the “off kinetics in jump dilution curve” value (saFabI [5]) was “rapid off kinetics”.

For CCc1ccc(Oc2ccccc2)c(O)c1 [PT01, 5-ethyl-2-phenoxyphenol], the MIC (S. aureus RN4220; [10]) was 2.3 µM, the MIC (S. aureus RN4220; [11]) was 2.3 µM and the MIC (E. coli MG1655 ΔacrAB; MG1655) was 0.6 µM (≈ 0.129 µg/mL). The MIC (E. coli MG1655 ΔacrAB; MG1655, read-out: MIC (μm)) was 0.6 µM (≈ 0.129 µg/mL), the MIC (E. coli MG1655; [12]) was 18.7 µM and the MIC (M. tuberculosis H37Rv; [13]) was 72.9 µM. For the same compound, the “MIC (μM)” value (F. tularensis LVS [6]) was 0.1^c μM and the “MIC (μM)” value (B. pseudomallei Bp400 [7]) was 326.7^c μM.

CCCCCCc1cc(=O)c(Oc2ccc(N)cc2C)cn1C [PT155] gave an IC50 [2] of 0.107 µM, an inhibition at 5 µg/mL (F. tularensis LVS [3]) of 91% and an MIC (M. tuberculosis H37Rv; [14]) of 6.25 µg/mL. For the same compound, the inhibition at 20 µg/mL (Bt38) was 90%, the IC50 [8] was 0.053 µM and the IC50 (bpFabI) was 0.14 µM. For the same compound, the IC50 (bpFabV) was 3 ± 0.6 µM, the IC50 (YpFabV) was greater than 50 µM and the inhibition at 40 µg/mL (Yersinia pestis) was 26%.

With CCCCCCc1cc(=O)c(Oc2ccc([N+](=O)[O-])cc2)cn1C [PT156] the IC50 [2] was 0.407 µM, the inhibition at 5 µg/mL (F. tularensis LVS [3]) was 88% and the MIC (M. tuberculosis H37Rv; [14]) was 50 µg/mL. For the same compound, the inhibition at 40 µg/mL (Bt38) was 43%, the IC50 (bpFabI) was 0.96 ± 0.1 µM and the IC50 (bpFabV) was 0.56 ± 0.1 µM. For the same compound, the IC50 (YpFabV) was 0.18 µM and the inhibition at 40 µg/mL (Yersinia pestis) was 29%.

CCCCCCc1cc(=O)c(Oc2ccccc2C)cn1C [PT166] showed a Ki (saFabI [1]; Ki (nM), saFabI) of 2.7 ± 0.6 nM, a Ki (saFabI [1]; Ki, saFabI) of 2.7 nM and a Ki (saFabI [1]; Ki^app (nM), saFabI, [S]/KS = 2) of 10.1 ± 2.1 nM. The Ki (saFabI [1]; Staphylococcus aureus Ki (nM), 4-pyridones table) was 2.7 nM, the Ki (ecFabI) was 8.5 ± 0.2 nM and the IC50 [2] was 0.0286 µM. The Ki [2] was 0.022 µM, the MIC (S. aureus RN4220; RN4220, 4-pyridones table, read-out: Staphylococcus aureus MIC (μg/mL) RN4220) was 0.24 µg/mL and the MIC (S. aureus RN4220; [10]) was 0.8 µM. It also gave an MIC (S. aureus RN4220; [11]) of 0.8 µM, an MIC (S. aureus RN4220; RN4220, strain RN4220 (parent), Table 4, read-out: MIC μm) of 0.8 µM and an MIC (S. aureus RN4220; RN4220, text, read-out: MIC against Staphylococcus aureus strain RN4220) of 0.24 µg/mL. The “Escherichia coli MIC (μg/mL) MG1655 ΔacrAB” value (E. coli MG1655 ΔacrAB; 4-pyridones table) was 2 µg/mL, the MIC (E. coli MG1655 ΔacrAB; MG1655) was 6.7 µM (≈ 2.01 µg/mL) and the MIC (E. coli MG1655 ΔacrAB; MG1655, read-out: MIC (μm)) was 6.7 µM (≈ 2.01 µg/mL). The “lower MIC against E. coli MG1655 lacking AcrAB” value (E. coli MG1655 ΔacrAB; relative to CG400549) was greater than 50 fold, the MIC (E. coli MG1655; MG1655, 4-pyridones table, in brackets, read-out: MIC for MG1655 with intact efflux pump) was greater than 128 µg/mL and the MIC (E. coli MG1655; MG1655, Table 2 footnote e, read-out: MIC against E. coli MG1655 with the intact AcrAB efflux pump) was greater than 425 µM. For the same compound, the MIC (F. tularensis LVS [3]) was 0.4 µM (≈ 0.12 µg/mL), the MIC (P. mirabilis ATCC35659; ATCC35659, read-out: MIC (μm)) was 214 µM (≈ 64 µg/mL) and the MIC (M. tuberculosis H37Rv; [14]) was 3.13 µg/mL. The MIC (M. tuberculosis H37Rv; H37RV, M. tuberculosis, read-out: MIC, in vitro anti-mycobacterial activity) was 10.5 µM, the MIC (M. tuberculosis H37Rv; [13]) was 10.5 µM and the MIC (B. pseudomallei Bp400 [4]; BP400, read-out: Burkholderia pseudomallei MIC (μg/mL) Bp400) was 64 µg/mL. The MIC (B. pseudomallei Bp400 [4]; BP400, read-out: MIC (μm)) was 214 µM, the MIC ([9]; read-out: MIC μm, strain 166R.1, FabI A95V) was 8.8 µM (≈ 2.63 µg/mL) and the MIC ([9]; read-out: MIC μm, strain 166R.2, FabI A95V) was 8.8 µM (≈ 2.63 µg/mL). The MIC ([9]; read-out: MIC μm, strain 166R.3, FabI A95V and F252L) was 8.8 µM (≈ 2.63 µg/mL), the MIC ([9]; read-out: MIC μm, strain 166R.4, FabI A95V and E71D) was 8.8 µM (≈ 2.63 µg/mL) and the MIC ([9]; read-out: MIC μm, strain 166R.5, no change in fabI) was 17.6 µM (≈ 5.27 µg/mL). For the same compound, the “decrease of bacterial burden in the infected thigh” value (MRSA strain BAA1762) was 2.8 log cfu/g tissue, the IC50 [8] was 0.024 µM and the AUC(0-t) (in vivo) was 53000 ng·h/mL. For the same compound, the Cmax (in vivo) was 45900 ng/mL, the Tmax (in vivo) was 0.25 h and the half-life (in vivo) was 2.7 h.
